Measured values as given in patent US9469615B2, “Quinoxalines and AZA-quinoxalines as CRTH2 receptor modulators” (Merck Sharp & Dohme Corp., priority 2010, dated 2016).

Target: T1, hCRTH2 (Homo sapiens, UniProt Q9Y5Y4)
T1 construct: expressed in transfected cells; host or cells: HEK (human embryonic kidney) cells expressing hCRTH2; membrane preparation
T1 sequence (Q9Y5Y4 1-395): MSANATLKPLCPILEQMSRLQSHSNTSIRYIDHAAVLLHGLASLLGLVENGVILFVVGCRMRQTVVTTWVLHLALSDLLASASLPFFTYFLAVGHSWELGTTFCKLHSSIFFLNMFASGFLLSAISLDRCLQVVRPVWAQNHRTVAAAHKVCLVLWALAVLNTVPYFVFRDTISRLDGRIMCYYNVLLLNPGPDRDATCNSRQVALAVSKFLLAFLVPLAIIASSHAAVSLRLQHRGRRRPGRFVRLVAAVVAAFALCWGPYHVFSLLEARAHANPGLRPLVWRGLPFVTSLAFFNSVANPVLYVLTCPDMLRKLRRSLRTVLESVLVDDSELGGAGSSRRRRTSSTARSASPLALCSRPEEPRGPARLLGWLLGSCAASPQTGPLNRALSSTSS
Assay: Radioligand binding assay ([3H]PGD2 competition, HEK-hCRTH2 membranes)
Details: [3H]PGD2 binding, rated A-E (Table A)
Method in brief: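 HEK-hCRTH2 membranes, 8-20 μg; [3H]PGD2 3.0 nM; 50 mM Tris-HCl pH 7.4/1 mM EDTA/2 mM MnCl2; DMSO 1%; 60 min RT; NSB 10 μM PGD2; filtration, scintillation counting.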

Compound | Ki [nM]
CC(CCCc1nc2cc(C(=O)N[C@@H](c3ccccc3)C(F)(F)F)ccc2nc1-c1ccc(Cl)cc1)C(=O)O (stereo partly drawn) [compound 163, 3-(4-chlorophenyl)-alpha-methyl-7-[[(2,2,2-trifluoro-1(S)-phenylethyl)amino]carbonyl]-2-2-quinoxalinepentanoic acid] | 2.1 to 20
CC(CCCc1nc2cc(C(=O)NCc3ccc(C#N)cc3)ccc2nc1-c1ccc(Cl)cc1)C(=O)O (stereo not drawn) [compound 164, 3-(4-chlorophenyl)-7-[[[(4-cyanophenyl)methyl]amino]carbonyl]-alpha-methyl-2-quinoxalinepentanoic acid] | 2.1 to 20
CC(CCCc1nc2cc(C(=O)N3CC(c4ccccc4)C3)ccc2nc1-c1ccc(Cl)cc1)C(=O)O (stereo not drawn) [compound 165, 3-(4-chlorophenyl)-alpha-methyl-7-[(3-phenyl-1-azetidinyl)carbonyl]-2-quinoxalinepentanoic acid] | 2.1 to 20
CC(CCCc1nc2cc(C(=O)N[C@H](C)c3ccc(F)cc3)ccc2nc1-c1ccc(Cl)cc1)C(=O)O (stereo partly drawn) [compound 166, 3(4-chlorophenyl)-7-[[[1(R)-(4-fluorophenyl)ethyl]amino]carbonyl]-alpha-methyl-2-quinoxalinepentanoic acid] | 2.1 to 20
CC(CCCc1nc2cc(C(=O)N[C@@H](C)c3ccc(F)cc3)ccc2nc1-c1ccc(Cl)cc1)C(=O)O (stereo partly drawn) [compound 167, 3-(4-chlorophenyl)-7-[[[1(S)-(4-fluorophenyl)ethyl]amino]carbonyl]-alpha-methyl-2-quinoxalinepentanoic acid] | 2.1 to 20
CC(CCCc1nc2cc(C(=O)NC3Cc4ccccc4C3)ccc2nc1-c1ccc(Cl)cc1)C(=O)O (stereo not drawn) [compound 168, 3-(4-chlorophenyl)-7-[[(2,3-dihydro-1H-inden-2-yl)amino]carbonyl]-alpha-methyl-2-quinoxalinepentanoic acid] | 2.1 to 20
CC(CCCc1nc2cc(C(=O)N3CCN(c4ccccc4)CC3)ccc2nc1-c1ccc(Cl)cc1)C(=O)O (stereo not drawn) [compound 169, 3-(4-chlorophenyl)-alpha-methyl-7-[(4-phenyl-1-piperazinyl)carbonyl]-2-quinoxalinepentanoic acid] | 2.1 to 20
C[C@]1(c2ccccc2)CCCN(C(=O)c2ccc3nc(-c4ccccc4)c(CCCCC(=O)O)nc3c2)C1 [compound 170, 7-[(3(R)-methyl-3-phenyl-1-piperidinyl)carbonyl]-3-phenyl-2-quinoxalinepentanoic acid] | 2.1 to 20
C[C@@]1(c2ccccc2)CCCN(C(=O)c2ccc3nc(-c4ccccc4)c(CCCCC(=O)O)nc3c2)C1 [compound 171, 7-[(3(S)-methyl-3-phenyl-1-piperidinyl)carbonyl]-3-phenyl-2-quinoxalinepentanoic acid] | 2.1 to 20
O=C(O)CCCCc1nc2cc(C(=O)N3CC(c4ccccc4)C3)ccc2nc1-c1ccccc1 [compound 172, 3-phenyl-7-[(3-phenyl-1-azetidinyl)carbonyl]-2-quinoxalinepentanoic acid] | 0.1 to 2
O=C(O)CCCCc1nc2cc(C(=O)N3CC(c4ccccc4)C3)ccc2nc1-c1ccc(F)cc1 [compound 173, 3-(4-fluorophenyl)--7-[(3-phenyl-1-azetidinyl)carbonyl]-2-quinoxalinepentanoic acid] | 0.1 to 2
N#Cc1ccc(C2CN(C(=O)c3ccc4nc(-c5ccccc5)c(CCCCC(=O)O)nc4c3)C2)cc1 [compound 174, 7-[[3-(4-cyanophenyl)-1-azetidinyl]carbonyl]-3-phenyl-2-quinoxalinepentanoic acid] | 0.1 to 2
N#Cc1cccc(C2CN(C(=O)c3ccc4nc(-c5ccccc5)c(CCCCC(=O)O)nc4c3)C2)c1 [compound 175, 7-[[3-(3-cyanophenyl)-1-azetidinyl]carbonyl]-3-phenyl-2-quinoxalinepentanoic acid] | 2.1 to 20
O=C(O)CCCCc1nc2cc(C(=O)N3CCCC(c4ccccc4)C3)ccc2nc1-c1ccc(Cl)cc1 (stereo not shown) [compound 176, 3-(4-chlorophenyl)-7-[(3-phenyl-1-piperidinyl)carbonyl]-2-quinoxalinepentanoic acid] | 2.1 to 20
O=C(O)CCCCc1nc2cc(C(=O)N3CCOCC3)ccc2nc1-c1ccc(Cl)cc1 [compound 177, 3-(4-chlorophenyl)-7-(4-morpholinylcarbonyl)-2-quinoxalinepentanoic acid] | 2.1 to 20
C[C@@H](NC(=O)c1ccc2nc(-c3ccc(Cl)cc3)c(CCCCC(=O)O)nc2c1)c1cccc(F)c1 [compound 178, 3-(4-chlorophenyl)-7-[[[1(R)-(3-fluorophenyl)ethyl]amino]carbonyl]-2-quinoxalinepentanoic acid] | 0.1 to 2
C[C@H](NC(=O)c1ccc2nc(-c3ccc(Cl)cc3)c(CCCCC(=O)O)nc2c1)c1cccc(F)c1 [compound 179, 3-(4-chlorophenyl)-7-[[[1(S)-(3-fluorophenyl)ethyl]amino]carbony!]-2-quinoxalinepentanoic acid] | 0.1 to 2
C[C@@H](NC(=O)c1ccc2nc(-c3ccc(Cl)cc3)c(CCCCC(=O)O)nc2c1)c1cccc(Cl)c1 [compound 180, 3-(4-chlorophenyl)-7-[[[1(R)-(3-chlorophenyl)ethyl]amino]carbonyl]-2-quinoxalinepentanoic acid] | 0.1 to 2
C[C@H](NC(=O)c1ccc2nc(-c3ccc(Cl)cc3)c(CCCCC(=O)O)nc2c1)c1cccc(Cl)c1 [compound 181, 3-(4-chlorophenyl)-7-[[[1(S)-(3-chlorophenyl)ethyl]amino]carbonyl]-2-quinoxalinepentanoic acid] | 0.1 to 2
C[C@@H](NC(=O)c1ccc2nc(-c3ccc(Cl)cc3)c(CCCCC(=O)O)nc2c1)c1cccnc1 [compound 182, 3-(4-chlorophenyl)-7-[[[1(R)-(3-pyridinyl)ethyl]amino]carbonyl]-2-quinoxalinepentanoic acid] | 2.1 to 20
C[C@H](NC(=O)c1ccc2nc(-c3ccc(Cl)cc3)c(CCCCC(=O)O)nc2c1)c1cccnc1 [compound 183] | 2.1 to 20
O=C(O)CCCCc1nc2cc(C(=O)N[C@@H]3CCCc4cc(F)ccc43)ccc2nc1-c1ccc(Cl)cc1 [compound 184, 3-(4-chlorophenyl)-7-[[(6-fluoro-1,2,3,4-tetrahydro-1(R)-naphthalenyl)amino]carbonyl]-2-quinoxalinepentanoic acid] | 0.1 to 2
O=C(O)CCCCc1nc2cc(C(=O)N[C@H]3CCCc4cc(F)ccc43)ccc2nc1-c1ccc(Cl)cc1 [compound 185, 3-(4-chlorophenyl)-7-[[(6-fluoro-1,2,3,4-tetrahydro-1(S)-naphthalenyl)amino]carbonyl]2-quinoxalinepentanoic acid] | 2.1 to 20
O=C(O)CCCCc1nc2cc(C(=O)N[C@@H]3CCCc4cc(Cl)ccc43)ccc2nc1-c1ccc(Cl)cc1 [compound 186, 3-(4-chlorophenyl)-7-[[(6-chloro-1,2,3,4-tetrahydro-1(R)-naphthalenyl)amino]carbonyl]-2-quinoxalinepentanoic acid] | 0.1 to 2
O=C(O)CCCCc1nc2cc(C(=O)N[C@H]3CCCc4cc(Cl)ccc43)ccc2nc1-c1ccc(Cl)cc1 [compound 187, 3-(4-chlorophenyl)-7-[[(6-chloro-1,2,3,4-tetrahydro-1(S)-naphthalenyl)amino]carbonyl]-2-quinoxalinepentanoic acid] | 2.1 to 20
O=C(O)CCCCc1nc2cc(C(=O)N3CCN(c4ccc(F)cc4)CC3)ccc2nc1-c1ccc(Cl)cc1 [compound 189, 3-(4-chlorophenyl)-7-[[4-(4-fluorophenyl)-1-piperazinyl]carbonyl]-2-quinoxalinepentanoic acid] | 0.1 to 2

Same assay, conditions: [3H]PGD2 binding, values in text

Compound | Ki [nM]
O=C(O)CCCCc1nc2cc(C(=O)N3CC(c4ccccc4)C3)ccc2nc1-c1ccc(F)cc1 [compound 173, 3-(4-fluorophenyl)--7-[(3-phenyl-1-azetidinyl)carbonyl]-2-quinoxalinepentanoic acid] | 1.6
C[C@@H](NC(=O)c1ccc2nc(-c3ccc(Cl)cc3)c(CCCCC(=O)O)nc2c1)c1cccc(Cl)c1 [compound 180, 3-(4-chlorophenyl)-7-[[[1(R)-(3-chlorophenyl)ethyl]amino]carbonyl]-2-quinoxalinepentanoic acid] | 0.6
